Reference: patent US9681664B2, “Macrocyclic picolinamides as fungicides” (Dow Agrosciences LLC, priority 2012, dated 2017)
Like-named read-outs stand apart in the source and are kept apart here.

Columns and labels:
[1] = test system: Puccinia triticina; Synonym: Puccinia recondite f. sp. tritici; assay: Wheat brown rust (PUCCRT) disease control on wheat seedlings; assay type: in vivo; conditions: Puccinia triticina, High volume application, 100 ppm
How it was run: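 Acetone solutions diluted in nine volumes of water with 110 ppm Triton X-100 sprayed to run-off on first-leaf Yuma wheat seedlings (track spray: EC with 0.1% Trycol 5941). Puccinia triticina spores inoculated before or after treatment; overnight dark dew at 22° C., 100% RH, then greenhouse at 24° C. for disease development.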

[2] = test system: Mycosphaerella graminicola; Anamorph: Septoria tritici; assay: Leaf blotch of wheat (SEPTTR) disease control on wheat seedlings; assay type: in vivo; conditions: Zymoseptoria tritici, High volume application, 100 ppm
How it was run: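 Wheat seedlings (Yuma, first leaf emerged) sprayed to run-off with compound in acetone/water with 110 ppm Triton X-100, or track-sprayed as EC with 0.1% Trycol 5941. Septoria tritici spores inoculated before or after treatment. Dew chambers, then 20 °C greenhouse. Percent disease control derived from severity (0–100%) relative to untreated plants.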

Phakopsora pachyrhizi = assay: Asian soybean rust (PHAKPA) disease control; assay type: in vivo; conditions: topical, high volume
Experimental: Technical grades of materials were dissolved in acetone, which were then mixed with nine volumes of water containing 0.011% Tween 20. The fungicide solutions were applied onto soybean seedlings using an automated booth sprayer to run-off. All sprayed plants were allowed to air dry prior to further handling.
Soybean plants (variety Williams 82) were grown in soil-less Metro mix, with one plant per pot. Two weeks old seedlings were used for testing. Plants were inoculated either 3 days prior to or 1 day after fungicide treatments. Plants were incubated for 24 h in a dark dew room at 22° C. and 100% RH then transferred to a growth room at 23° C. for disease to develop. Disease severity was assessed on the sprayed leaves.

[3] = 24 h, 1 Day Protectant, read-out: PUCCRT 1DP disease control
[4] = 72 h, 3 Day Curative, read-out: PUCCRT 3DC disease control
[5] = 24 h, 1 Day Protectant, read-out: SEPTTR 1DP disease control
[6] = 72 h, 3 Day Curative, read-out: SEPTTR 3DC disease control
[7] = 24 h, 1 Day Protectant, read-out: Disease Control PHAKPA 1DP

| SMILES | pest or weed control at 100 ppm [1, 3] [%] | pest or weed control at 100 ppm [1, 4] [%] | melting point [°C] | pest or weed control at 100 ppm [2, 5] [%] | pest or weed control at 100 ppm [2, 6] [%] | pest or weed control at 25 ppm (Phakopsora pachyrhizi; [7]) [%] | pest or weed control at 25 ppm (Phakopsora pachyrhizi; 72 h, 3 Day Curative, read-out: Disease Control PHAKPA 3DC) [%] |
| --- | --- | --- | --- | --- | --- | --- | --- |
| COc1ccnc(C(=O)N[C@H]2CCC[C@H](Oc3ccc(F)cc3)[C@@H](Oc3ccc(F)cc3)[C@H](C)OC2=O)c1O [F50] | 80 to 100 | 80 to 100 | 89 to 91 | 80 to 100 | 0 to 80 | – | – |
| COc1ccnc(C(=O)N[C@H]2CCC[C@H](OCC(C)C)[C@@H](Oc3ccc(F)cc3)[C@H](C)OC2=O)c1O [F55] | 80 to 100 | 80 to 100 | 65 to 67 | 80 to 100 | 80 to 100 | – | – |
| COc1ccnc(C(=O)N[C@H]2CCC[C@H](Oc3ccc(F)cc3)[C@@H](OCC(C)C)[C@H](C)OC2=O)c1OCOC(C)=O [F63] | 80 to 100 | 80 to 100 | 139 to 141 | 80 to 100 | 80 to 100 | – | – |
| COc1ccc(O[C@H]2CCC[C@H](NC(=O)c3nccc(OC)c3OCOC(C)=O)C(=O)O[C@@H](C)[C@@H]2OCC(C)C)cc1 [F68] | 80 to 100 | 80 to 100 | 118 to 120 | 80 to 100 | 80 to 100 | 80 to 100 | – |
| COc1ccnc(C(=O)N[C@H]2CCC[C@H](OC3CCCC3)[C@@H](OC3CCCC3)[C@H](C)OC2=O)c1O [F73] | 80 to 100 | 80 to 100 | 61 to 63 | 0 to 80 | 80 to 100 | – | – |
| COc1ccnc(C(=O)N[C@H]2CCC[C@H](Oc3ccccc3)[C@@H](OC3CCCC3)[C@H](C)OC2=O)c1OCOC(C)=O [F80] | 80 to 100 | 80 to 100 | 148 to 149 | 80 to 100 | 80 to 100 | 80 to 100 | 80 to 100 |
| COc1ccnc(C(=O)N[C@H]2CCC[C@H](OC3CCCC3)[C@@H](OCC(C)C)[C@H](C)OC2=O)c1O [F119] | 80 to 100 | 80 to 100 | 99 to 100 | 80 to 100 | 80 to 100 | – | – |
| COc1ccnc(C(=O)N[C@H]2CCC[C@H](OC3CCCC3)[C@@H](OCCCC(F)(F)F)[C@H](C)OC2=O)c1O [F120] | 80 to 100 | 80 to 100 | 43 to 48 | 80 to 100 | 80 to 100 | – | – |
| CCCO[C@H]1[C@H](C)OC(=O)[C@@H](NC(=O)c2nccc(OC)c2O)CCC[C@@H]1OCC(C)C [F212] | 80 to 100 | 80 to 100 | 109 to 111 | 0 to 80 | 0 to 80 | – | – |
| COc1ccnc(C(=O)N[C@H]2CCC[C@H](OCC(C)C)[C@@H](OC(=O)C3CC3)[C@H](C)OC2=O)c1O [F213] | 80 to 100 | 80 to 100 | 63 to 66 | 0 to 80 | 0 to 80 | – | – |
